Laboratory results reported in US12692278B2, “Synthesis methods and compositions of low intermediate and low dichelate intermediate contrast agents” (priority 2021, dated 2026).
Each block holds one molecule with its values, some of them ahead of it.

Legend:
[1] = Free Gd3+ baseline / in vial, xylenol orange; type: physicochemical
Excerpt: Additionally or alternately, an improved version of the xylenol orange titration of free Gd3+ in the USP can be used as both an in-process check and a final product check. To obtain a limit of detection adequate for the product produced in the above claims, UV spectroscopy must be used in conjunction with the titration to measure the xylenol orange/free Gd reaction. Furthermore, an indirect measure of metastable intermediates is obtained when the titration reaction is allowed to proceed past the initial reaction of xylenol orange and free Gd. This is because xylenol orange will pull Gd from the metastable intermediates over time. […] Free Gadolinium was determined by using the spectrometric xylenol orange technique described in previous studies.

[2] = Free Gd3+ after exposure to bovine serum; type: physicochemical
Method: To show these metastable intermediates readily evolve into free Gd3+, Gd-DOTA was placed in a solution of bovine serum and the amount of Gd3+ was measured.
Bovine blood was obtained at a local slaughterhouse, citrated, centrifuged and serum was obtained and frozen. In tests, serum was slowly heated to body temperature and 1% Gd-DOTA by weight was added to serum and placed on rocker for 30 minutes. Ten samples were tested for each test article.

[3] = Transmetallation with ZnCl solution; type: physicochemical; conditions: free Gd; 10% by weight ZnCl solution; unit not given
Excerpt: 10% by weight ZnCl solution was used to support the serum results, arguing that Zn substitution of Gd in the chelate quantifies the stability of the Gd-DOTA in much the same way that metals in serum block Gd3+ recombination with the chelate, but with more precision, since the contents of bovine serum is variable among mammals.

[4] = Feasibility of cation exchange (sodium polystyrene sulfonate), free Gd3+ by xylenol orange; type: physicochemical; conditions: before sodium polystyrene sulfonate treatment
Method: Feasibility of cation exchange as a method of making Gd-DOTA with low metastable intermediates
Using sodium polystyrene sulfonate, rather than the polymer described above.
Ten samples were stored at room temperature with a stoichiometric amount of sodium polystyrene sulfonate.
Samples were tested using the improved spectrometric xylenol orange method.

[5] = Feasibility of excess DTPA, free Gd3+ by xylenol orange; type: physicochemical; conditions: new 12 hour sample before DTPA
Method: The metastable intermediate concentration is determined by Example 3, and associated methods described in the present application. A Gd-DOTA synthesis containing metastable intermediates is heated to 95° C. in the presence of a stoichiometric amount of DTPA sufficient to consume all the metastable intermediates. The presence of metastable intermediates can be measured as a function of time. The reaction is continued until a desired metastable intermediate content is obtained. Depending on the amount of free DOTA thus liberated, the free DOTA can be reacted with a positively charged resin, as is known in the art. Alternatively, the free DOTA may serve as a buffer against free Gd3+ formation, as is permitted in some drug formulations. Ten samples were prepared by adding stoichiometric amounts of DTPA to counter the excess Gd3+ and stored at room temperature for 24 hours. Samples were tested using the improved spectrometric xylenol orange method.

[6] = pH controlled synthesis, free Gd versus synthesis time; type: physicochemical
Method: Here, Example 1A is modified by the addition of gadolinim oxide in its entirety at first and immediately after the introduction of the DOTA, and this procedure is used to produce batch A of Gd-DOTA. Batch B is produced using the following modified procedure.
• 1. Heat reactor to 95° C. • 2. Charge water with all of gadolinium oxide • 3. Stir (stir unless otherwise indicated, nominal rate 300 rpm) until the solution is clear • 4. Add sufficient DOTA to obtain a pH of 4 • 5. When pH is >5 charge sufficient DOTA to reach pH of 4 • 6. Stir until uniformly distributed in the water, and clear • 7. If pH<4, then go to step 9 • 8. Go to step 4 • 9. Divide remaining portion of DOTA into 5 parts • 10. Add 1 part of remaining DOTA • 11. Stir until uniformly distributed in the water, and clear • 12. If DOTA remains to be added go to step 10 • 13. Continue to cook for a total of 12 hours Results

[7] = Feasibility of acid precipitation, free Gd3+ by xylenol orange; type: physicochemical; conditions: 12 hour sample, 1 hr 0.1 M HCl, buffer to pH 7.0, filtration
Method: The feasibility of acid precipitation as a method for making Gd-DOTA with low metastable intermediate forms was tested.
(§1) Ten samples were tested using the improved spectrometric xylenol orange method after 1 hr exposure to acid (0.1 M HCl), buffer to pH 7.0, and filtration of the precipitate. • 12 hour Example 1A sample was used at 803 ppm Gd3+ • After acid precipitation (N=5) • 8.6+/−9.2 ppm Gd3+ range: 15.9 ppm Gd3+ to undetectable
as §1, with “1B” for “1A”, “undetectable.” for “undetectable”

[8] = type: physicochemical
Excerpt: Ironically, Gd-DTPA has a more favorable binding constant than does Gd-DOTA at pH 7.4. For less basic ligands like Gd-DTPA-BMA and DOTA-(gly)4, the experimental values are closer to the theoretical thermodynamic stability constant because there is less competition from available protons at pH 7.4.

[9] = Free Gd(III) in incompletely synthesized complex solution; type: physicochemical; conditions: mean of five reactions
Method: Then, the content of free DOTA, free gadolinium, and complex was determined, and the final content of excess free DOTA was set. Five reactions were run, using 4.05 g of DOTA, 15 ml water, and 1.78 g of gadolinium oxide. Ten spectroscopic measurements using Xylenol orange were conducted. […] This is the molar amount of xylenol orange added to each reaction product. One can use: Understanding that the denominator is a constant and Abs^573 is the number of free Gd(III) ions that react with the xylenol orange. This is a conservative measure of ppm, given by the ratio of free gadolinium and total gadolinium in the reactant (×10^6). Another possible definition, which would give a higher number (less conservative) is simply comparing free gadolinium to complexed gadolinium, which would mean ppm of free gadolinium for every million complexed gadolinium.

Molecule: CNC[C@H](O)[C@@H](O)[C@H](O)[C@H](O)CO.O=C([O-])CN1CCN(CC(=O)[O-])CCN(CC(=O)O)CCN(CC(=O)[O-])CC1.[Gd+3] [Example 1, Gd-DOTA]
Baseline Free Gd3+ ([1]; before serum, ppm adjusted to pre-diluted level at drug concentration): 0.77 +/− 0.92 ppm
In Vial ([1]; free Gd, no unit printed in this table (ppm in the 1st table)): 0.77 +/− 0.92
Free Gd+ after serum ([2]; 1% Gd-DOTA by weight in bovine serum, body temperature, rocker 30 minutes, ppm adjusted to pre-diluted level): 88 +/− 16.8 ppm
In Serum ([2]; free Gd, unit not given): 2.9 +/− 0.8
Transmetallation [3]: 88 +/− 16.8
Gd3+ of starting sample [4]: 2146 ppm
Gd3+ of starting sample [5]: 2146 ppm
Free Gd ([6]; synthesis time 4 hrs): 17,467 +/− 9.4 ppm
Free Gd ([6]; synthesis time 8 hrs): 3,448 +/− 8.9 ppm
Free Gd ([6]; synthesis time 12 hrs): 803 +/− 8.1 ppm

Molecule: O=C([O-])CN1CCN(CC(=O)[O-])CCN(CC(=O)O)CCN(CC(=O)[O-])CC1.[Gd+3] [Example 2A, Gd-DOTA]
Gd3+ after acid precipitation, range (upper value, down to undetectable) [7]: ≤ 15.9 ppm
Gd3+ after acid precipitation ([7]; N=5): 8.6+/−9.2 ppm

Molecule: CNC[C@H](O)[C@@H](O)[C@H](O)[C@H](O)CO.O=C([O-])CN1CCN(CC(=O)[O-])CCN(CC(=O)O)CCN(CC(=O)[O-])CC1.[Gd+3] [Gd-DOTA, gadoterate meglumine, reference compound]
in-bottle measured free gadolinium ([1]; commercial product stored in bottle): 10^13 Gd3+ ions in 100 ml of GCA product
stability lower at pH 7.4 [8]: 7 orders of magnitude

Free Gd(III), MEAN [9]: 30,989 +/− 9410 ppm
Molecule: Gd-DOTA [Example 4]
